Experiments:
[1] = tested on: K. pneumoniae NHRI 1 isolate; assay: Mouse survival model of K. pneumoniae infection; assay type: in vivo; details: neutropenic Balb/c mice, lethal i.p. infection; 5 mg/kg CS or 20 mg/kg CS NPs (50% MTD) 5 hours post-infection
Method: 3 days and 1 day before infection, the mice were injected intraperitoneally with 150 and 100 mg/kg of cyclophosphamide, respectively, to induce neutropenia. K. pneumoniae NHRI 1 isolate was grown in 60 mL Mueller Hinton broth at 150 rpm (orbital shaker, Yihder TS-580) for 2.5 hours at 37° C. to reach the mid-logarithmic phase. The bacteria were then collected at 10,000×g for 10 minutes at 4° C. The bacterial pellet was resuspended in PBS. To induce K. pneumoniae intraperitoneal infection with a lethal bacterial dose, mice were infected with 1.5×10^8 CFU/mouse in […] via intraperitoneal injection. 5 hours post-infection, the infected mice were treated with 5 mg/kg CS (50% MTD), 20 mg/kg CS NPs (50% MTD), or PBS as a control.

[2] = mouse, in vivo, iv, 4 mg/kg
Method: A group of mice were injected intravenously with sterile PBS through the tail vein as negative control. 24 hours after the last treatment, 0.5 mL of blood was collected from the animals for comprehensive metabolic panel analysis. The data was analyzed by Student's t-test followed by Dunnett's multiple comparison tests using GraphPad Prism (GraphPad Software, San Diego, CA). p values smaller than 0.05 were considered significant.

[3] = tested on: K. pneumoniae; assay: MIC/MBC broth microdilution, Example 2; assay type: cell-based, Klebsiella pneumoniae; details: Example 2 CS NPs
Method: (§1) Reference bacterial stains were purchased from ATCC. Clinical isolates of carbapenem-resistant bacteria were obtained from National Health Research Institutes (NHRI) and Tri-Service General Hospital (TSGH). MIC is defined as the lowest concentration of antibiotics required to inhibit the growth of bacteria. MBC is defined as the lowest concentration of antibiotics required to eradicate microorganisms. The MICs of CS and the CS NPs were determined using a broth microdilution method. Bacterial suspensions were adjusted to a turbidity of McFarland 0.5±0.05 and cultured overnight with different concentrations of CS or CS NPs. A control group without antimicrobial treatment was prepared as a reference. Following overnight incubation, solution turbidity was determined by visual inspection. Culture wells with no observable turbidity were further sub-cultured for MBC evaluation. Solutions from the clear wells were deposited onto an agar plate and cultured overnight to determine the MBCs.
(§2) To evaluate the antibacterial efficacy of the CS NPs of this study, their MIC and MBC were assessed against 5 reference bacterial strains and 20 clinical isolates of carbapenem-resistant A. baumannii, E. coli, K. pneumoniae, and P. aeruginosa according to the procedures set forth in EXAMPLE 1. Reference bacterial stains were purchased from ATCC. Carbapenem-resistant clinical isolated were obtained from NHRI.

[4] = CS release by dialysis; assay type: physicochemical; details: 50 k MWCO membrane, 37° C., pH 7.4 and pH 5.0
Method: CS release from the CS NPs was studied using a dialysis tube with 50 k MWCO membrane (Pur-A-Lyzer™ Maxi Dialysis Kit, Sigma-Aldrich) in 0.15 M phosphate buffer (pH 7.4) and in 0.15 M acetate buffer solution (pH 5.0). […] Samples were each placed into a dialysis tube at 37° C. under gentle stirring. At predetermined time points, the samples were collected and analyzed for CS content using HPLC.

[5] = tested on: E. coli; assay: MIC/MBC broth microdilution, Example 1; assay type: cell-based; details: Example 1 CS NPs
Method: (§3) To evaluate antibacterial efficacy of the CS NPs, their minimum inhibitory concentration (MIC) and minimum bactericidal concentration (MBC) were assessed against 5 reference bacterial strains and 39 clinical isolates of carbapenem-resistant A. baumannii, P. aeruginosa, E. coli, and K. pneumoniae.
as §1

[6] = tested on: P. aeruginosa; assay: MIC/MBC broth microdilution, Example 2; assay type: cell-based, Pseudomonas aeruginosa; details: Example 2 CS NPs
Method: as §1, §2

[7] = tested on: E. Coli ATCC 25922; assay: MIC and MBC of different treatments, Example 3; assay type: cell-based
Method: as §1

[8] = tested on: P. aeruginosa; assay: MIC/MBC broth microdilution, Example 1; assay type: cell-based, Pseudomonas aeruginosa; details: Example 1 CS NPs
Method: as §3, §1

[9] = tested on: A. baumannii; assay: MIC/MBC broth microdilution, Example 2; assay type: cell-based, Acinetobacter baumannii; details: Example 2 CS NPs
Method: as §1, §2

[10] = clinical carbapenem-resistant isolate K. pneumoniae NHRI 1
[11] = clinical carbapenem-resistant isolate K. pneumoniae NHRI 2
[12] = clinical carbapenem-resistant isolate K. pneumoniae NHRI 3
[13] = clinical carbapenem-resistant isolate K. pneumoniae NHRI 4
[14] = clinical carbapenem-resistant isolate K. pneumoniae NHRI 5
[15] = clinical carbapenem-resistant E. coli NHRI 1
[16] = clinical carbapenem-resistant E. coli NHRI 2
[17] = clinical carbapenem-resistant E. coli NHRI 3
[18] = clinical carbapenem-resistant E. coli NHRI 4
[19] = clinical carbapenem-resistant E. coli NHRI 5
[20] = clinical carbapenem-resistant E. coli TSGH 2
[21] = clinical carbapenem-resistant E. coli TSGH 4
[22] = clinical carbapenem-resistant E. coli TSGH 6
[23] = clinical carbapenem-resistant E. coli TSGH 8
[24] = clinical carbapenem-resistant E. coli TSGH 10
[25] = clinical carbapenem-resistant E. coli TSGH 14
[26] = clinical carbapenem-resistant E. coli TSGH 20
[27] = clinical carbapenem-resistant E. coli TSGH 21
[28] = clinical carbapenem-resistant isolate P. aeruginosa NHRI 1
[29] = clinical carbapenem-resistant isolate P. aeruginosa NHRI 2
[30] = clinical carbapenem-resistant isolate P. aeruginosa NHRI 3
[31] = clinical carbapenem-resistant isolate P. aeruginosa NHRI 4
[32] = clinical carbapenem-resistant isolate P. aeruginosa NHRI 5
[33] = reference strain P. aeruginosa 27853
[34] = clinical carbapenem-resistant P. aeruginosa NHRI 1
[35] = clinical carbapenem-resistant P. aeruginosa NHRI 2
[36] = clinical carbapenem-resistant P. aeruginosa NHRI 3
[37] = clinical carbapenem-resistant P. aeruginosa NHRI 4
[38] = clinical carbapenem-resistant P. aeruginosa NHRI 5
[39] = clinical carbapenem-resistant isolate A. baumannii NHRI 1
[40] = clinical carbapenem-resistant isolate A. baumannii NHRI 2
[41] = clinical carbapenem-resistant isolate A. baumannii NHRI 3
[42] = clinical carbapenem-resistant isolate A. baumannii NHRI 4
[43] = clinical carbapenem-resistant isolate A. baumannii NHRI 5
[44] = reference strain A. baumannii 17978
[45] = reference strain A. baumannii 19606

Substance: colistin [CS]
- mice survival rate [1]: did not improve survival
- other parameters in the comprehensive metabolic panel [2]: neither CS nor the CS NPs induced any notable changes
- MBC [3, 10]: 4 µg/mL
- MIC [3, 10]: 1 µg/mL
- MBC [3, 11]: 1 µg/mL
- MIC [3, 11]: 1 µg/mL
- MBC [3, 12]: 2 µg/mL
- MIC [3, 12]: 1 µg/mL
- MBC [3, 13]: 2 µg/mL
- MIC [3, 13]: 2 µg/mL
- MBC [3, 14]: 4 µg/mL
- MIC [3, 14]: 1 µg/mL
- release profile in dialysis [4]: rapidly dialyzed from the setup
- MBC [5, 15]: 1 µg/mL
- MIC [5, 15]: 1 µg/mL
- MBC [5, 16]: 1 µg/mL
- MIC [5, 16]: 1 µg/mL
- MBC [5, 17]: 1 µg/mL
- MIC [5, 17]: 1 µg/mL
- MBC [5, 18]: 2 µg/mL
- MIC [5, 18]: 1 µg/mL
- MBC [5, 19]: 2 µg/mL
- MIC [5, 19]: 1 µg/mL
- MBC [5, 20]: 1 µg/mL
- MIC [5, 20]: 1 µg/mL
- MBC [5, 21]: 1 µg/mL
- MIC [5, 21]: 1 µg/mL
- MBC [5, 22]: 2 µg/mL
- MIC [5, 22]: 1 µg/mL
- MBC [5, 23]: 2 µg/mL
- MIC [5, 23]: 1 µg/mL
- MBC [5, 24]: 1 µg/mL
- MIC [5, 24]: 1 µg/mL
- MBC [5, 25]: 1 µg/mL
- MIC [5, 25]: 1 µg/mL
- MBC [5, 26]: 1 µg/mL
- MIC [5, 26]: 1 µg/mL
- MBC [5, 27]: 1 µg/mL
- MIC [5, 27]: 1 µg/mL
- MBC ([5]; reference strain E. coli 25922): 2 µg/mL
- MIC ([5]; reference strain E. coli 25922): 1 µg/mL
- MBC [6, 28]: 4 µg/mL
- MIC [6, 28]: 1 µg/mL
- MBC [6, 29]: 4 µg/mL
- MIC [6, 29]: 2 µg/mL
- MBC [6, 30]: 4 µg/mL
- MIC [6, 30]: 1 µg/mL
- MBC [6, 31]: 4 µg/mL
- MIC [6, 31]: 2 µg/mL
- MBC [6, 32]: 4 µg/mL
- MIC [6, 32]: 1 µg/mL
- MBC [6, 33]: 2 µg/mL
- MIC [6, 33]: 1 µg/mL
- MBC [7]: 4 µg/mL
- MIC [7]: 2 µg/mL
- MBC [8, 34]: 2 µg/mL
- MIC [8, 34]: 2 µg/mL
- MBC [8, 35]: 4 µg/mL
- MIC [8, 35]: 2 µg/mL
- MBC [8, 36]: 8 µg/mL
- MIC [8, 36]: 2 µg/mL
- MBC [8, 37]: 8 µg/mL
- MIC [8, 37]: 4 µg/mL
- MBC [8, 38]: 4 µg/mL
- MIC [8, 38]: 2 µg/mL
- MBC [8, 33]: 1 µg/mL
- MIC [8, 33]: 1 µg/mL
- MBC [9, 39]: 2 µg/mL
- MIC [9, 39]: 1 µg/mL
- MBC [9, 40]: 2 µg/mL
- MIC [9, 40]: 2 µg/mL
- MBC [9, 41]: 2 µg/mL
- MIC [9, 41]: 1 µg/mL
- MBC [9, 42]: 4 µg/mL
- MIC [9, 42]: 1 µg/mL
- MBC [9, 43]: 2 µg/mL
- MIC [9, 43]: 1 µg/mL
- MBC [9, 44]: 2 µg/mL
- MIC [9, 44]: 2 µg/mL
- MBC [9, 45]: 4 µg/mL
- MIC [9, 45]: 2 µg/mL

From patent US12569534B2, “Therapeutic nanoparticles by coacervate complexation and their use for treating bacteria” (priority 2018, dated 2026)
